Literature values as cited in patent US20110153027A1, “Drug Delivery System” (Vysera Biomedical Limited, priority 2009, published 2011).

What was measured:
[1] = minimum effective concentration
[2] = compared with cyclosporine

| Compound | MEC [1] [µg/mL] | water solubility [2] |
| --- | --- | --- |
| Cn1cnc([N+](=O)[O-])c1Sc1ncnc2nc[nH]c12 [Azathioprine] | 1 | – |
| Sc1ncnc2nc[nH]c12 [6-mercaptopurine] | 1 | – |
| Cc1ncc([N+](=O)[O-])n1CCO [Metronidazole] | 8 | higher water solubility than cyclosporine |
| O=C(O)c1cn(C2CC2)c2cc(N3CCNCC3)c(F)cc2c1=O [Ciprofloxacin] | 0.2 | – |
